Experiment [1] deals with B16 melanoma F10 cells. Kind of experiment: Inhibitory effect on melanin production in B16 melanoma F10 cells. The format is cell-based. Conditions: 10 μM, 72 hours. On the procedure: B 16 melanoma F 10 cells were seeded into each well of a 24-well plate at a cell concentration of 10^4 cells/well. After 17 hours, the adhesion of the cells was confirmed and the medium was removed. […] The plate was incubated in a CO2 incubator for 72 hours and then the medium was removed. Next, 2 ml of NaOH was added into each well of the plate, followed by standing at 60° C. for 30 minutes. Then, the cell solution was measured for absorbance at 450 nm. The concentration of melanin was calculated compared to the melanin standard curve.

Experiment [2] deals with B16 melanoma F10 cells. Kind of experiment: Inhibitory effect on total melanin production upon ultraviolet irradiation, B16 melanoma F10 cells. Format: cell-based.

`O=c1cc(CO)occ1O` [kojic acid] gave a production of melanin in experiment [1] of 16.54 µg/mL. Further, the “melanin production upon ultraviolet irradiation” value in experiment [2] (0.2 μM) is 22.72 µg/mL; in experiment [2] (2 μM), 19.22 µg/mL.

The values above are taken from patent US20080206175A1, “Composition for Skin Whitening and Wrinkle Improvement Comprising Vaccinium Uliginosum Extract and Method for Preparation Thereof” (priority 2005, published 2008).
